# Source: patent publication US20230192722A1, “SALTS AND SOLID FORMS OF AN FGFR INHIBITOR AND PROCESSES OF PREPARING THEREOF” (Incyte Corporation, priority 2021, published 2023)
# How the values were obtained:
# Type in all cases: physicochemical
# [1] = Solubility measurement of Compound 1 Phosphate, saturated in different solvent systems, measured by HPLC; conditions: DCM, 50° C. column, measured at 40° C.
# [2] = Phase equilibration of form mixtures, relative stability of Compound 1 Phosphate forms (XRPD); conditions: mixture of Forms I, II
# Method: The relative stability of the three forms (Forms I, II, and III) as well as amorphous form of Compound 1 Phosphate studied and compared by phase equilibration of mixture experiments in EtOH and in a mixture solvent of EtOH/H2O (9/1). As summarized in Table 16, Compound 1 Phosphate (Form I) was mixed and slurred with other forms in EtOH and in a mixed solvent of EtOH/H2O (9/1) at 50° C. for 6 h respectively.
# [3] = Solubility measurement of Compound 1 Phosphate, saturated in different solvent systems, measured by HPLC
# Method: The Compound 1 Phosphate sample was saturated in different solvent systems (Table 4) at 25° C. and 50° C., respectively. Each solubility was measured by HPLC.
smiles,measurement,setting,value
"COc1cc2[nH]nc(-c3ccc(N4CCN5C[C@H](O)C[C@H]5C4)nc3)c2nc1-c1cccc(C)c1C.O=P(O)(O)O [Compound 1 Phosphate, (7R,8aS)-2-(5-(5-(2,3-dimethylphenyl)-6-methoxy-1H-pyrazolo[4,3-b]pyridin-3-yl)pyridin-2-yl)octahydropyrrolo[1,2-a]pyrazin-7-ol phosphate]",Solubility,[1],0.05 (40° C.) mg/mL
same,Product Solid Form,[2]; III and Amorphous slurried in EtOH at 50° C. for 6 h,transformed to Form I
same,Product Solid Form,[2]; III and Amorphous slurried in EtOH/H2O (9/1) at 50° C. for 6 h,transformed to Form I
same,Solubility,"[3]; 1,4-dioxane, 25° C.",150 µg/mL
same,Solubility,"[3]; 1,4-dioxane, 50° C.",230 µg/mL
same,Solubility,"[3]; 2-Butanone, 25° C.",100 µg/mL
same,Solubility,"[3]; 2-Butanone, 50° C.",130 µg/mL
same,Solubility,"[3]; Acetone, 25° C.",70 µg/mL
same,Solubility,"[3]; Acetone, 50° C.",100 µg/mL
same,Solubility,"[3]; CH3CN, 25° C.",<10 µg/mL
same,Solubility,"[3]; CH3CN, 50° C.",10 µg/mL
same,Solubility,"[3]; CHCl3, 25° C.",60 µg/mL
same,Solubility,"[3]; CHCl3, 50° C.",130 µg/mL
same,Solubility,"[3]; DCM, 25° C.",30 µg/mL
same,Solubility,"[3]; DMF, 25° C.",14410 µg/mL
same,Solubility,"[3]; DMF, 50° C.",19060 µg/mL
same,Solubility,"[3]; DMSO, 25° C.",33740 µg/mL
same,Solubility,"[3]; DMSO, 50° C.",44990 µg/mL
same,Solubility,"[3]; EtOAc, 25° C.",50 µg/mL
same,Solubility,"[3]; EtOAc, 50° C.",60 µg/mL
same,Solubility,"[3]; EtOH, 25° C.",530 µg/mL
same,Solubility,"[3]; EtOH, 50° C.",680 µg/mL
same,Solubility,"[3]; Ethyl formate, 25° C.",120 µg/mL
same,Solubility,"[3]; Ethyl formate, 50° C.",140 µg/mL
same,Solubility,"[3]; H2O, 25° C.",260 µg/mL
same,Solubility,"[3]; H2O, 50° C.",1100 µg/mL
same,Solubility,"[3]; Heptane, 25° C.",<10 µg/mL
same,Solubility,"[3]; Heptane, 50° C.",<10 µg/mL
same,Solubility,"[3]; IPA, 25° C.",230 µg/mL
same,Solubility,"[3]; IPA, 50° C.",280 µg/mL
same,Solubility,"[3]; IPAc, 25° C.",20 µg/mL
same,Solubility,"[3]; IPAc, 50° C.",30 µg/mL
same,Solubility,"[3]; MIBK, 25° C.",160 µg/mL
same,Solubility,"[3]; MIBK, 50° C.",160 µg/mL
same,Solubility,"[3]; MTBE, 25° C.",60 µg/mL
same,Solubility,"[3]; MTBE, 50° C.",70 µg/mL
same,Solubility,"[3]; MeOEtOH, 25° C.",4140 µg/mL
same,Solubility,"[3]; MeOEtOH, 50° C.",5570 µg/mL
same,Solubility,"[3]; MeOH, 25° C.",2260 µg/mL
same,Solubility,"[3]; MeOH, 50° C.",2440 µg/mL
same,Solubility,"[3]; THF, 25° C.",60 µg/mL
same,Solubility,"[3]; THF, 50° C.",70 µg/mL
same,Solubility,"[3]; Toluene, 25° C.",<10 µg/mL
same,Solubility,"[3]; Toluene, 50° C.",20 µg/mL
same,Solubility (almost insoluble),"[3]; in CH3CN, CHCl3, DCM, 1,4-dioxane, MIBK, toluene, THF, acetone, n-BuOH, MTBE, EtOH, EtOAc, ethyl formate, heptane, iso-butyl acetate, IPAc, n-PrOH, IPA, MEK at 25° C. and 50° C., and in H2O at 25° C.",< 1000 µg/mL
same,Solubility (relatively good solubility),"[3]; in DMF and DMSO, at both 25° C. and 50° C.",> 10000 µg/mL
same,Solubility (slightly soluble),"[3]; in MeOH and MeOEtOH at 25° C. and 50° C., and in H2O at 50° C.",1000 to 10000 µg/mL
same,Solubility,"[3]; iso-Butyl acetate, 25° C.",110 µg/mL
same,Solubility,"[3]; iso-Butyl acetate, 50° C.",150 µg/mL
same,Solubility,"[3]; n-BuOH, 25° C.",360 µg/mL
same,Solubility,"[3]; n-BuOH, 50° C.",470 µg/mL
same,Solubility,"[3]; n-PrOH, 25° C.",400 µg/mL
same,Solubility,"[3]; n-PrOH, 50° C.",400 µg/mL
